The text below walks through data of patent publication US10682417B2, “Targeted sensitization of non-del(5q) malignant cells” (H. LEE MOFFITT CANCER CENTER AND RESEARCH INSTITUTE, INC., priority 2013, dated 2020).

Assay [1] relates to del5q MDS. The note with it: patients with del5q MDS; cited from earlier work.
Assay [2] deals with U937 cells. The assay is described as follows: Apoptosis after dual Cdc25C/PP2Acα shRNA knockdown plus lenalidomide, U937 cells. The assay is classed as cell-based. The note with it: dual Cdc25C and PP2Acα shRNA knockdown 48 hours, then lenalidomide 5 μM for 48 hours. Here is the method:
(§1) FIGS. 2A-2B are images of an RT-PCR gel (FIG. 2A) and Western blot (FIG. 2B) to detect PP2A and Cdc25C gene (FIG. 2A) and protein (FIG. 2B) expression in U937 cells infected with mock (lane 1), lentiviral vectors encoding non-target shRNA control (lane 2), shCdc25C (lane 3), shPP2Acα (lane 4), shCdc25C and PP2Acα (lane 5) and negative for PCR (lane 6) and harvested 48 hours after incubation. FIGS. 2C and 2D are bar graphs showing P2Acα and Cdc25c mRNA expression (copies/GAPDH) in U937 cells infected with mock, lentiviral vectors encoding non-target shRNA control, shCdc25C, shPP2Acα, or shCdc25C and PP2Acα. FIGS. 2E-2F are bar graphs showing apoptosis (%) in U937 cells (E) or BM-MNC (F) that were infected with lentiviral vectors containing various constructs as indicated for 48 hours and then treated with or without lenalidomide at the concentration of […] for additional 48 hours before being analyzed for apoptosis. […]
(§2) U937 cells were infected with mock (lane 1), lentiviral vectors encoding non-target shRNA control (lane 2), shCdc25C (lane 3), shPP2Acα (lane 4), shCdc25C and PP2Acα (lane 5) and negative for PCR (lane 6). […] The U937 cells (FIG. 2C) or BM-MNC (FIG. 2D) were infected with lentiviral vectors containing various constructs as indicated for 48 hours and then treated with or without lenalidomide at the concentration of 5 μM for additional 48 hours before analyzed for apoptosis. […]

The test system of assay [3] is BM-MNC from non-(del)5q MDS patients. Kind of assay: Apoptosis after dual Cdc25C/PP2Acα shRNA knockdown plus lenalidomide, BM-MNC. The note with it: dual knockdown 48 hours, then lenalidomide 5 μM for 48 hours, p<0.001 vs shRNA control plus lenalidomide, five patients. The format is cell-based, human. Here is the method:
as §1, §2

As for `Nc1cccc2c1CN(C1CCC(=O)NC1=O)C2=O` (racemic) [lenalidomide, (RS)-3-(4-Amino-1-oxo 1,3-dihydro-2H-isoindol-2-yl)piperidine-2,6-dione], the “median duration of response” value in assay [1] is 2.5 years. Moreover, the “apoptotic response to lenalidomide” value in assay [2] and in assay [3] was “increases apoptotic response” throughout.
